Measured values as given in ChEMBL document CHEMBL2331422, “Tetracyclic diterpenoids with isomerized isospongian skeleton and labdane diterpenoids from the fruits of Amomum kravanh” (J Nat Prod, 2013).

Legend:
[1] = Antiplatelet aggregation activity in New Zealand white rabbit platelet rich plasma assessed as inhibition of ADP-induced aggregation treated for 3 mins before ADP challenge by turbidimetric method; assay type: functional; details: Oryctolagus cuniculus, Newzealand white
[2] = tested on: RAW264.7; test: Inhibition of nitric oxide production in LPS-stimulated mouse RAW264.7 cells at 100 uM by Griess reagent assay; assay type: functional
[3] = Cytotoxicity against mouse RAW264.7 cells assessed as cell survival up to 100 uM by MTT assay; assay type: cell-based; details: read-out: Activity
[4] = tested on: RAW264.7; test: Inhibition of nitric oxide production in LPS-stimulated mouse RAW264.7 cells by Griess reagent assay; assay type: functional, cell-based

C=C1CC[C@H]2C(C)(C)CCC[C@]2(C)[C@H]1C/C=C(/CO)[C@@H](O)CO
IC50 [1]: > 200 µM
inhibition at 100 µM [2]: < 10%
viability [3]: 90%

C=C1CC[C@H]2[C@](C)(CO)[C@@H](O)CC[C@]2(C)[C@H]1C/C=C1\CCOC1=O
IC50 [1]: > 200 µM
inhibition at 100 µM [2]: < 10%
viability [3]: 90%

C=C1CC[C@H]2[C@](C)(CO)[C@@H](O)CC[C@]2(C)[C@H]1CCC1=CC(=O)OC1
IC50 [1]: 58.9 µM
inhibition at 100 µM [2]: < 10%
viability [3]: 90%

CC1(C)C(=O)CC[C@]2(C)[C@H]3CCC4=CC(=O)O[C@@H]4[C@@]3(C)C(=O)C[C@@H]12 [KRAVANHIN C]
IC50 [1]: > 200 µM
inhibition at 100 µM [2]: < 10%
viability [3]: 90%

CC1(C)CCC[C@]2(C)[C@H]3CCC4=CC(=O)O[C@@H]4[C@@]3(C)C(=O)C[C@@H]12 [KRAVANHIN B]
IC50 [1]: > 200 µM
inhibition at 100 µM [2]: < 10%
IC50 [4]: 36.2 µM
viability [3]: 90%

CC1(C)[C@@H](O)CC[C@]2(C)[C@H]3CCC4=CC(=O)O[C@@H]4[C@@]3(C)C(=O)C[C@@H]12 [KRAVANHIN A]
IC50 [1]: > 200 µM
inhibition at 100 µM [2]: < 10%
viability [3]: 90%

CC(=O)Oc1ccccc1C(=O)O [ASPIRIN]
IC50 [1]: 58.9 µM

CC1(C)CCC[C@]2(C)[C@H]3CC=C(CCO)C(O)[C@@]3(C)C(=O)C[C@@H]12 (some centres undefined) [KRAVANHIN D]
IC50 [1]: > 200 µM
inhibition at 100 µM [2]: < 10%
viability [3]: 90%

CNC(=N)NCCC[C@H](N)C(=O)O [TILARGININE]
IC50 [4]: 40.4 µM
